According to publication PMC10033419, “Blocking NS3–NS4B interaction inhibits dengue virus in non-human primates” (Nature, 2023):
Values joined by “and” are separate entries in the source; they are usually repeats but may differ in a detail not shown here. Equal entries are not always repeated. Where two headings read alike, the source gives them in different places.

System: DENV-2 RL
Assay: microbe, parasite or virus in culture
Format: cell-based

Work on `COc1cc(N[C@H](C(=O)c2c[nH]c3ccc(OC(F)(F)F)cc23)c2ccc(Cl)cc2OC)cc(S(C)(=O)=O)c1` [JNJ-1802] yielded an EC50 (A sample, passage 20, read-out: EC50 values Ave) of 32.2 nM, an EC50 (A sample, passage 21, read-out: EC50 values Ave) of 32.2 nM and an EC50 (A sample, passage 22, read-out: EC50 values Ave) of 32.2 nM. It also gave an EC50 (A sample, passage 23, read-out: EC50 values Ave) of 32.2 nM, an EC50 (B sample, passage 29, read-out: EC50 values Ave) of 32.2 nM and an EC50 (B sample, passage 30, read-out: EC50 values Ave) of 32.2 nM. The EC50 (Dengue virus, DENV2, Vero, read-out: EC50 by microscopic evaluation of CPE, experiment A, passage 0) was 0.06 nM, the EC50 (Dengue virus, DENV2, Vero, read-out: EC50 by microscopic evaluation of CPE, experiment A, passage 5) was 0.06 nM and the EC50 (Dengue virus, DENV2, Vero, read-out: EC50 by microscopic evaluation of CPE, experiment A, passage 10) was 0.25 nM. It also gave an EC50 (Dengue virus, DENV2, Vero, read-out: EC50 by microscopic evaluation of CPE, experiment A, passage 15) of 1 nM, an EC50 (Dengue virus, DENV2, Vero, read-out: EC50 by microscopic evaluation of CPE, experiment A, passage 25) of 64 nM and an EC50 (Dengue virus, DENV2, Vero, read-out: EC50 by microscopic evaluation of CPE, experiment A, passage 30) of 260 nM. The EC50 (Dengue virus, DENV2, Vero, read-out: EC50 by microscopic evaluation of CPE, experiment A, passage 35) was 260 nM, the EC50 (Dengue virus, DENV2, Vero, read-out: EC50 by microscopic evaluation of CPE, experiment A, passage 40) was 1290 nM and the EC50 (Dengue virus, DENV2, Vero, read-out: EC50 by microscopic evaluation of CPE, experiment A, passage 42) was 1290 nM. For the same compound, the EC50 (Dengue virus, DENV2, Vero, read-out: EC50 by microscopic evaluation of CPE, experiment B, passage 0) was 0.06 nM, the EC50 (Dengue virus, DENV2, Vero, read-out: EC50 by microscopic evaluation of CPE, experiment B, passage 5) was 0.06 nM and the EC50 (Dengue virus, DENV2, Vero, read-out: EC50 by microscopic evaluation of CPE, experiment B, passage 20) was 0.5 nM. The EC50 (Dengue virus, DENV2, Vero, read-out: EC50 by microscopic evaluation of CPE, experiment B, passage 25) was 4 nM, the EC50 (Dengue virus, DENV2, Vero, read-out: EC50 by microscopic evaluation of CPE, experiment B, passage 35) was 80 nM and the EC50 (Dengue virus, DENV2, Vero, read-out: EC50 by microscopic evaluation of CPE, experiment B, passage 45) was 640 nM. For the same compound, the EC50 (Dengue virus, DENV2, Vero, read-out: EC50 by microscopic evaluation of CPE, experiment B, passage 50) was 1290 nM, the EC50 (Dengue virus, DENV2, Vero, read-out: EC50 values Ave, A sample, passage 1) was 3.7e-05 µg/mL and 0.063 nM and the EC50 (Dengue virus, DENV2, Vero, read-out: EC50 values Ave, A sample, passage 2) was 3.7e-05 µg/mL and 0.063 nM. The EC50 (Dengue virus, DENV2, Vero, read-out: EC50 values Ave, A sample, passage 3) was 3.7e-05 µg/mL and 0.063 nM, the EC50 (Dengue virus, DENV2, Vero, read-out: EC50 values Ave, A sample, passage 4) was 3.7e-05 µg/mL and 0.063 nM and the EC50 (Dengue virus, DENV2, Vero, read-out: EC50 values Ave, A sample, passage 5) was 3.7e-05 µg/mL and 0.063 nM. The EC50 (Dengue virus, DENV2, Vero, read-out: EC50 values Ave, A sample, passage 6) was 0.126 nM, the EC50 (Dengue virus, DENV2, Vero, read-out: EC50 values Ave, A sample, passage 7) was 3.7e-05 µg/mL and 0.063 nM and the EC50 (Dengue virus, DENV2, Vero, read-out: EC50 values Ave, A sample, passage 8) was 3.7e-05 µg/mL and 0.063 nM. The EC50 (Dengue virus, DENV2, Vero, read-out: EC50 values Ave, A sample, passage 9) was 0.126 nM, the EC50 (Dengue virus, DENV2, Vero, read-out: EC50 values Ave, A sample, passage 10) was 0.000146 µg/mL and 0.251 nM and the EC50 (Dengue virus, DENV2, Vero, read-out: EC50 values Ave, A sample, passage 11) was 0.000146 µg/mL and 0.251 nM. The EC50 (Dengue virus, DENV2, Vero, read-out: EC50 values Ave, A sample, passage 12) was 0.000146 µg/mL and 0.251 nM, the EC50 (Dengue virus, DENV2, Vero, read-out: EC50 values Ave, A sample, passage 13) was 0.000293 µg/mL and 0.503 nM and the EC50 (Dengue virus, DENV2, Vero, read-out: EC50 values Ave, A sample, passage 14) was 1.01 nM. For the same compound, the EC50 (Dengue virus, DENV2, Vero, read-out: EC50 values Ave, A sample, passage 15) was 1.01 nM, the EC50 (Dengue virus, DENV2, Vero, read-out: EC50 values Ave, A sample, passage 16) was 0.00117 µg/mL and 2.01 nM and the EC50 (Dengue virus, DENV2, Vero, read-out: EC50 values Ave, A sample, passage 17) was 0.00234 µg/mL and 4.02 nM. The EC50 (Dengue virus, DENV2, Vero, read-out: EC50 values Ave, A sample, passage 18) was 0.00469 µg/mL and 8.04 nM, the EC50 (Dengue virus, DENV2, Vero, read-out: EC50 values Ave, A sample, passage 24) was 0.0375 µg/mL and 64.3 nM and the EC50 (Dengue virus, DENV2, Vero, read-out: EC50 values Ave, A sample, passage 25) was 0.0375 µg/mL and 64.3 nM. For the same compound, the EC50 (Dengue virus, DENV2, Vero, read-out: EC50 values Ave, A sample, passage 26) was 129 nM, the EC50 (Dengue virus, DENV2, Vero, read-out: EC50 values Ave, A sample, passage 27) was 0.15 µg/mL and 257 nM and the EC50 (Dengue virus, DENV2, Vero, read-out: EC50 values Ave, A sample, passage 28) was 0.15 µg/mL and 257 nM. The EC50 (Dengue virus, DENV2, Vero, read-out: EC50 values Ave, A sample, passage 29) was 0.15 µg/mL and 257 nM, the EC50 (Dengue virus, DENV2, Vero, read-out: EC50 values Ave, A sample, passage 30) was 0.15 µg/mL and 257 nM and the EC50 (Dengue virus, DENV2, Vero, read-out: EC50 values Ave, A sample, passage 31) was 129 nM. For the same compound, the EC50 (Dengue virus, DENV2, Vero, read-out: EC50 values Ave, A sample, passage 32) was 129 nM, the EC50 (Dengue virus, DENV2, Vero, read-out: EC50 values Ave, A sample, passage 33) was 0.15 µg/mL and 257 nM and the EC50 (Dengue virus, DENV2, Vero, read-out: EC50 values Ave, A sample, passage 34) was 0.15 µg/mL and 257 nM. For the same compound, the EC50 (Dengue virus, DENV2, Vero, read-out: EC50 values Ave, A sample, passage 35) was 0.15 µg/mL and 257 nM, the EC50 (Dengue virus, DENV2, Vero, read-out: EC50 values Ave, A sample, passage 36) was 0.15 µg/mL and 257 nM and the EC50 (Dengue virus, DENV2, Vero, read-out: EC50 values Ave, A sample, passage 37) was 0.3 µg/mL and 515 nM. For the same compound, the EC50 (Dengue virus, DENV2, Vero, read-out: EC50 values Ave, A sample, passage 38) was 0.3 µg/mL and 515 nM, the EC50 (Dengue virus, DENV2, Vero, read-out: EC50 values Ave, A sample, passage 39) was 1290 nM and the EC50 (Dengue virus, DENV2, Vero, read-out: EC50 values Ave, A sample, passage 40) was 1290 nM. For the same compound, the EC50 (Dengue virus, DENV2, Vero, read-out: EC50 values Ave, A sample, passage 41) was 1290 nM, the EC50 (Dengue virus, DENV2, Vero, read-out: EC50 values Ave, A sample, passage 42 (END)) was 1290 nM and the EC50 (Dengue virus, DENV2, Vero, read-out: EC50 values Ave, B sample, passage 1) was 3.7e-05 µg/mL and 0.063 nM. The EC50 (Dengue virus, DENV2, Vero, read-out: EC50 values Ave, B sample, passage 2) was 3.7e-05 µg/mL and 0.063 nM, the EC50 (Dengue virus, DENV2, Vero, read-out: EC50 values Ave, B sample, passage 3) was 3.7e-05 µg/mL and 0.063 nM and the EC50 (Dengue virus, DENV2, Vero, read-out: EC50 values Ave, B sample, passage 4) was 3.7e-05 µg/mL and 0.063 nM. For the same compound, the EC50 (Dengue virus, DENV2, Vero, read-out: EC50 values Ave, B sample, passage 5) was 3.7e-05 µg/mL and 0.063 nM, the EC50 (Dengue virus, DENV2, Vero, read-out: EC50 values Ave, B sample, passage 6) was 0.126 nM and the EC50 (Dengue virus, DENV2, Vero, read-out: EC50 values Ave, B sample, passage 7) was 0.126 nM.
